Laboratory results: PMC6401105, “Dual role of the Anopheles coluzzii Venus Kinase Receptor in both larval growth and immunity” (Scientific Reports, 2019)

Assays:
[1] = molecular target: T1, Anopheles VKR (AgVKR; VKR^WT) (Anopheles gambiae, UniProt C5H7S1); experiment: GVBD of Xenopus oocytes expressing VKR; anti-phosphotyrosine Western blot; format: cell-based; settings: agonist; VFT domain; ND96 medium pH 7.4, 19 °C, 18 h; not an EC50
T1 sequence (C5H7S1 26-1465): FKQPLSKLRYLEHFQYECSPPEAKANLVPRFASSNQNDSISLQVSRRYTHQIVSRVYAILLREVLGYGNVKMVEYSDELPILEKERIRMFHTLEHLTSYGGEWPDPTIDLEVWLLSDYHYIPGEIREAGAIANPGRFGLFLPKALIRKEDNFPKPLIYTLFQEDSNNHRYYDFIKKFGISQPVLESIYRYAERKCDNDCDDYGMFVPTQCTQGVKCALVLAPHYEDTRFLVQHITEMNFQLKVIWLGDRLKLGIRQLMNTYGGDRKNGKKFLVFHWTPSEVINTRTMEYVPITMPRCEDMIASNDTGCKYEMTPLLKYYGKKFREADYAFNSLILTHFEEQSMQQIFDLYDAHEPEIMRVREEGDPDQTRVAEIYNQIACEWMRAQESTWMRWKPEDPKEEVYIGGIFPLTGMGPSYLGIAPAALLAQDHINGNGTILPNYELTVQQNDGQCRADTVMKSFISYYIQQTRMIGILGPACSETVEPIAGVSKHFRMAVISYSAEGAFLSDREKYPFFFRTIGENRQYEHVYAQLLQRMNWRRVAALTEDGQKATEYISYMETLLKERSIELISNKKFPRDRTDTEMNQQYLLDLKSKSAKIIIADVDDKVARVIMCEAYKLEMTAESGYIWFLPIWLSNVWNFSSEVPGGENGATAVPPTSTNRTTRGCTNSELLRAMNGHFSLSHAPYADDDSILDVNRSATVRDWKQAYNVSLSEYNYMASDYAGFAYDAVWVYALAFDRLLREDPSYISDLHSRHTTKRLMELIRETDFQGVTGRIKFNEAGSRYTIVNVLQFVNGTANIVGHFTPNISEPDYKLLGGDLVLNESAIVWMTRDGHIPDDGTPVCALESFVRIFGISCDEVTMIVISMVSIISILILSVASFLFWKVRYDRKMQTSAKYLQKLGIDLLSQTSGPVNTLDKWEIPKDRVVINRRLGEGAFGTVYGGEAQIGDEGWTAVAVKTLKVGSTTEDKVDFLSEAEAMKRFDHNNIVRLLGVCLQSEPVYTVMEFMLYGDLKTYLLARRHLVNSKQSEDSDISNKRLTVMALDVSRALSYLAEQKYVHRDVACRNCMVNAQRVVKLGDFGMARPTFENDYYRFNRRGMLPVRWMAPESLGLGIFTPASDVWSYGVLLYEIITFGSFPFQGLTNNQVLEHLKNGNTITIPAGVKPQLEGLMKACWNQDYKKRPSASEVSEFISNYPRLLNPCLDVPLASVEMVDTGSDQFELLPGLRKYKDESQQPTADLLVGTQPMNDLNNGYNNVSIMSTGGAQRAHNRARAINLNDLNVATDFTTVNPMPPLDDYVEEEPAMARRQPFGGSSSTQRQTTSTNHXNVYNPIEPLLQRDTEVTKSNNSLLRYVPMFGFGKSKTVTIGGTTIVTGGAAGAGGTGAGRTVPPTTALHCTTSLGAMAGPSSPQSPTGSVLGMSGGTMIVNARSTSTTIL

[2] = molecular target: T1, Anopheles VKR (AgVKR; VKR^WT); experiment: GVBD of Xenopus oocytes expressing VKR; format: cell-based; settings: agonist; VFT domain; ND96 medium pH 7.4, 19 °C, 18 h; not an EC50

| Structure (SMILES) | minimal concentration to induce GVBD [1] | minimal concentration to induce GVBD [2] |
| --- | --- | --- |
| N=C(N)NCCC[C@H](N)C(=O)O [L-Arg] | 1 µM | – |
| N[C@@H](CS)C(=O)O [L-Cys] | – | 1 mM |
